From patent US5196094A, “Separation of 1,1,1-trichloroethane from the lower alcohols by extractive distillation” (priority 1991, dated 1993)

How the values were obtained:
[1] = Vapor-liquid equilibrium still, separation of 1,1,1-trichloroethane from ethanol; assay type: physicochemical; settings: 1,1,1-trichloroethane from ethanol
[2] = Vapor-liquid equilibrium still, separation of 1,1,1-trichloroethane from n-propanol; assay type: physicochemical
[3] = Vapor-liquid equilibrium still, separation of 1,1,1-trichloroethane from t-butanol; assay type: physicochemical
[4] = minimum boiling azeotrope with 1,1,1-trichloroethane; cited from earlier work
[5] = Vapor-liquid equilibrium still, separation of 1,1,1-trichloroethane from 2-butanol; assay type: physicochemical
[6] = Vapor-liquid equilibrium still, separation of 1,1,1-trichloroethane from methanol; assay type: physicochemical
[7] = Run in glass perforated plate rectification column, n-propanol; assay type: physicochemical
Experimental: A solution comprising 250 grams of the 1,1,1-trichloroethane-n-propanol azeotrope was placed in the stillpot of the 7.3 theoretical plate rectification column. […] The temperature of the extractive agent as it entered the top of the column was 75° C. After establishing the feed rate of the extractive agent, the heat input to the 1,1,1-trichloroethane […] in the stillpot was adjusted to give a total reflux rate of 40 ml/min. After 1.5 hours operation, overhead and bottoms samples were collected and analysed. […] This gives an average relative volatility of 2.33 for each theoretical plate.

[8] = Run in glass perforated plate rectification column, 2-butanol; assay type: physicochemical
Experimental: A solution comprising 250 grams of the 1,1,1-trichloroethane-2-butanol azeotrope was placed in the stillpot of the 7.3 theoretical plate rectification column. […] The temperature of the extractive agent as it entered the column was 83° C. After establishing the feed rate of the extractive agent, the heat input to the 1,1,1-trichloroethane-2-butanol in the stillpot as adjusted to give a total reflux rate of 40 ml/min. After 1.5 hours operation, overhead and bottoms samples were collcted and analysed. The overhead analysis was 99.7% 1,1,1-trichloroetahne, 0.3% 2-butanol and the bottoms analysis was 55.1% 1,1,1-trichloroethane, 44.9% 2-butanol. This gives an average relative volatility of 2.15 for each theoretical plate.

[9] = Run in glass perforated plate rectification column, methanol; assay type: physicochemical; settings: 1 h
Experimental: A solution comprising 250 grams of the 1,1,1-trichloroethane-methanol azeotrope was placed in the stillpot of a 7.3 theoretical plate glass perforated plate rectification column. […] The temperature of the extractive agent as it entered the top of the column was 65° C. After establishing the feed rate of the extractive agent, the heat input to the 1,1,1-trichloroethane-methanol in the stillpot was adjusted to give a total reflux rate of 40 ml/min. After 1.5 hours operation, overhead and bottoms samples were collected and analysed by gas chromatography. The overhead analysis was 90.2% 1,1,1-trichloroethane, 9.8% methanol and the bottoms analysis was 0.8% 1,1,1-trichloroethane, 99.2% methanol.

[10] = Run in glass perforated rectification column, t-butanol; assay type: physicochemical
Experimental: A solution comprising 250 grams of the 1,1,1-trichloroethane-t-butanol azeotrope was placed in the stillpot of the 7.3 theoretical plate rectification column. […] The temperature of the extractive agent as it entered the top of the column was 80° C. After establishing the feed rate of the extractive agent, the heat input to the 1,1,1-trichloroethane-t-butanol in the stillpot was adjusted to give a total reflux rate of 40 ml/min. After 1.5 hours operation, overhead and bottoms samples were collected and analysed. The overhead analysis was 95.7% 1,1,1-trichloroethane, 4.3% t-butanol and the bottoms analysis was 33.5% 1,1,1-trichloroethane, 66.5% t-butanol. This gives an average relative volatility of 1.68 for each theoretical plate.

[11] = Run in glass perforated plate rectification column, ethanol; assay type: physicochemical; settings: 1 h
Experimental: (§1) A solution comprising 250 grams of the 1,1,1-trichloroethane ethanol azeotrope was placed in the stillpot of the 7.3 theoretical plate rectification column. […] The temperature of the extractive agent as it entered the top of the column was 70° C. After establishing the feed rate of the extractive agent, the heat input to the 1,1,1-trichloroethane ethanol in the stillpot was adjusted to give a total reflux rate of 40 ml/min. After 1.5 hours operation, overhead and bottoms samples were collected and analysed.

[12] = Vapor-liquid equilibrium still, separation of 1,1,1-trichloroethane from isopropanol; assay type: physicochemical
[13] = Run in glass perforated plate rectification column, isopropanol; assay type: physicochemical
Experimental: as §1, with “1,1,1-trichloroethane-isopropanol” for “1,1,1-trichloroethane ethanol”, “73°” for “70°”

[14] = 1,1,1-trichloroethane from n-propanol, vapor-liquid equilibrium still
[15] = 1,1,1-trichloroethane from t-butanol
[16] = 1,1,1-trichloroethane from methanol, vapor-liquid equilibrium still
[17] = 70 g azeotrope, 30 g agent, refluxed eight hours
[18] = […], average for each theoretical plate
[19] = 1,1,1-trichloroethane from 2-butanol, vapor-liquid equilibrium still

CCCCO [1-Butanol]
Relative Volatility [1]: 3.5 | Relative Volatility [2, 14]: 3.9 | Relative Volatility [3, 15]: 2.7

CCC(C)O (stereo not shown) [2-Butanol]
Relative Volatility [1]: 2.0 | 1,1,1-trichloroethane content of azeotrope [4]: 90% | azeotrope boiling point [4]: 70.5 °C

COCCOCCO [Diethylene glycol methyl ether]
Relative Volatility [5]: 3.0 | Relative Volatility [6, 16]: 3.3 | Relative Volatility [1]: 3.3 | Relative Volatility [2]: 2.7 | Relative Volatility [3, 15]: 2.2

C[S+](C)[O-] [Dimethylsulfoxide]
Relative Volatility [5]: 2.2 | liquid composition, 1,1,1-trichloroethane [6, 17]: 11% | liquid composition, methanol [6, 17]: 89% | vapor composition, 1,1,1-trichloroethane [6, 17]: 24.2% | vapor composition, methanol [6, 17]: 75.8% | Relative Volatility ([7]; 1 h): 2.17 | Relative Volatility [7, 18]: 2.33 | Weight % CH3 CCl3 ([7]; bottoms, 1 h): 40% | Weight % n-Propanol ([7]; bottoms, 1 h): 60% | Weight % CH3 CCl3 ([7]; overhead, 1 h): 99.5% | Weight % n-Propanol ([7]; overhead, 1 h): 0.5% | Relative Volatility ([8]; 1 h): 2.1 | Relative Volatility [8, 18]: 2.15 | Weight % 2-Butanol ([8]; bottoms, 1 h): 46.9% | Weight % CH3 Cl3 ([8]; bottoms, 1 h): 53.1% | Weight % 2-Butanol ([8]; overhead, 1 h): 0.4% | Weight % CH3 Cl3 ([8]; overhead, 1 h): 99.6% | Relative Volatility [9]: 2.13 | Weight % CH3 CCl3 ([9]; bottoms): 3.5% | Weight % Methanol ([9]; bottoms): 96.5% | Weight % CH3 CCl3 ([9]; overhead): 90.2% | Weight % Methanol ([9]; overhead): 9.8% | Relative Volatility ([10]; 1 h): 1.68 | Relative Volatility [10, 18]: 1.68 | Weight % CH3 CCl3 ([10]; bottoms, 1 h): 43.4% | Weight % t-Butanol ([10]; bottoms, 1 h): 56.6% | Weight % CH3 CCl3 ([10]; overhead, 1 h): 97.1% | Weight % t-Butanol ([10]; overhead, 1 h): 2.9% | Relative Volatility [11]: 2.1 | Weight % CH3 CCl3 ([11]; bottoms): 13.6% | Weight % Ethanol ([11]; bottoms): 86.4% | Weight % CH3 CCl3 ([11]; overhead): 97.3% | Weight % Ethanol ([11]; overhead): 2.7% | Relative Volatility [2, 14]: 2.3 | Relative Volatility [12]: 2.5 | Relative Volatility ([13]; 1 h): 2.5 | Relative Volatility [13, 18]: 2.2 | Weight % CH3 CCl3 ([13]; bottoms, 1 h): 27.8% | Weight % Isopropanol ([13]; bottoms, 1 h): 72.2% | Weight % CH3 CCl3 ([13]; overhead, 1 h): 99.6% | Weight % Isopropanol ([13]; overhead, 1 h): 0.4% | Relative Volatility [3, 15]: 1.7

CCCCOCCO [Ethylene glycol butyl ether]
Relative Volatility [5, 19]: 2.8 | Relative Volatility [6, 16]: 3.2 | Relative Volatility [2, 14]: 2.0 | Relative Volatility [3, 15]: 1.7

CC(=O)OCCOC(C)=O [Ethylene glycol diacetate]
Relative Volatility [1]: 1.7 | Relative Volatility [2]: 1.7 | Relative Volatility [3, 15]: 1.3

CCOCCO [Ethylene glycol ethyl ether]
Relative Volatility [5]: 3.1 | Relative Volatility [1]: 2.5 | Relative Volatility [2]: 3.6 | Relative Volatility [3, 15]: 2.2

COCCO [Ethylene glycol methyl ether]
Relative Volatility [5]: 4.5 | Relative Volatility [1]: 1.95 | Relative Volatility [2]: 4.4 | Relative Volatility [3, 15]: 3.1

OCCOc1ccccc1 [Ethylene glycol phenyl ether]
Relative Volatility [5, 19]: 2.0 | Relative Volatility [6]: 3.1 | Relative Volatility [2]: 2.5 | Relative Volatility [3, 15]: 1.3

CC(C)CCO [Isoamyl alcohol]
Relative Volatility [5]: 1.6 | Relative Volatility [6]: 2.2 | Relative Volatility [2]: 3.6 | Relative Volatility [3, 15]: 3.0

CC(C)CO [Isobutanol]
Relative Volatility [1]: 1.35 | Relative Volatility [2]: 2.2 | Relative Volatility [3, 15]: 1.2

COC(=O)c1ccccc1O [Methyl salicylate]
Relative Volatility [5]: 1.3 | Relative Volatility [1]: 1.55 | Relative Volatility [2]: 1.3 | Relative Volatility ([12]; * Brings Isopropanol out as Overhead, vapor-liquid equilibrium still): 1.45 | Relative Volatility ([3]; * Brings out t-Butanol as Overhead): 1.3

CC1COC(=O)O1 (stereo not shown) [Propylene carbonate]
Relative Volatility [5, 19]: 2.4 | Relative Volatility [1]: 2.2 | Relative Volatility [2, 14]: 2.0 | Relative Volatility [3, 15]: 1.5

COCC(C)O (stereo not shown) [Propylene glycol methyl ether]
Relative Volatility [5, 19]: 3.9 | Relative Volatility [6, 16]: 3.1 | Relative Volatility [1]: 2.0 | Relative Volatility [2, 14]: 4.2 | Relative Volatility ([12]; 1,1,1-trichloroethane from isopropanol, vapor-liquid equilibrium still): 2.3 | Relative Volatility [3, 15]: 1.7

O=S1(=O)CCCC1 [Sulfolane]
Relative Volatility [5]: 2.7 | Relative Volatility [1]: 2.2 | Relative Volatility [12]: 1.4 | Relative Volatility [3, 15]: 1.4

CCO [ethanol]
1,1,1-trichloroethane content of azeotrope [4]: 75% | azeotrope boiling point [4]: 63 °C

CC(C)O [isopropanol]
1,1,1-trichloroethane content of azeotrope [4]: 80%

CO [methanol]
1,1,1-trichloroethane content of azeotrope [4]: 20% | azeotrope boiling point [4]: 61 °C

CCCO [n-propanol]
1,1,1-trichloroethane content of azeotrope [4]: 85%

CC(C)(C)O [t-butanol]
1,1,1-trichloroethane content of azeotrope [4]: 80% | azeotrope boiling point [4]: 66 °C
